Source: article PMC11167047 (Cell Death Discovery, 2024)

How the values were obtained:
Test in all cases: kinome screen (33PanQinase)
Format in all cases: biochemical
ACVR2B = target: T1, ACVR2B (Homo sapiens, UniProt Q13705)
T1 construct: purchased Reaction Biology Europe GmbH (formerly ProQinase)
Description: (§1) The Kinome Screening was performed by Reaction Biology Europe GmbH (http://reactionbiology.com; Freiburg i. Br., Germany).

PKCβ2 = target: T2, PKCβ2 (Homo sapiens, UniProt P05771)
T2 construct: purchased Reaction Biology Europe GmbH (formerly ProQinase)
Description: as §1

DAPK1 = target: T3, DAPK1 (Homo sapiens, UniProt P53355)
T3 construct: purchased Reaction Biology Europe GmbH (formerly ProQinase)
Description: as §1

CDK19/CycC = target: T4, CDK19/CycC (Homo sapiens, UniProt Q9BWU1)
T4 construct: purchased Reaction Biology Europe GmbH (formerly ProQinase)
Description: as §1

AuroraB = target: T5, AuroraB (Homo sapiens, UniProt Q96GD4)
T5 construct: purchased Reaction Biology Europe GmbH (formerly ProQinase)
Description: as §1

STK25 = target: T6, STK25 (Homo sapiens, UniProt O00506)
T6 construct: purchased Reaction Biology Europe GmbH (formerly ProQinase)
Description: as §1

TTBK1 = target: T7, TTBK1 (Homo sapiens, UniProt Q5TCY1)
T7 construct: purchased Reaction Biology Europe GmbH (formerly ProQinase)
Description: as §1

BLK = target: T8, BLK (Homo sapiens, UniProt P51451)
T8 construct: purchased Reaction Biology Europe GmbH (formerly ProQinase)
Description: as §1

NLK = target: T9, NLK (Homo sapiens, UniProt Q9UBE8)
T9 construct: purchased Reaction Biology Europe GmbH (formerly ProQinase)
T9 sequence (Q9UBE8 1-527): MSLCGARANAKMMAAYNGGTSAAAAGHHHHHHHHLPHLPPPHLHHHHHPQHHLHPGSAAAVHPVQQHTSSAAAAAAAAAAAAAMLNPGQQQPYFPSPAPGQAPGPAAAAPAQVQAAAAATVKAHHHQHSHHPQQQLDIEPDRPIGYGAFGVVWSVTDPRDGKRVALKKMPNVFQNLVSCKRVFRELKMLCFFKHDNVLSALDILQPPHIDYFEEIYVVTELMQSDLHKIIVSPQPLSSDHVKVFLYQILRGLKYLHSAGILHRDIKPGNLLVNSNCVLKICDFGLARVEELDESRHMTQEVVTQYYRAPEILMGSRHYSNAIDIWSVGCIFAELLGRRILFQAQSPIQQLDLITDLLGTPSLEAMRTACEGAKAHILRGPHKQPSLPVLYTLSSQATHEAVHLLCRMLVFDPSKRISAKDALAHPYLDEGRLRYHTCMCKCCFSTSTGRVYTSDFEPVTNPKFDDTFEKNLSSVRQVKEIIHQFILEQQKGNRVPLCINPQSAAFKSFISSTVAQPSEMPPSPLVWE
Description: as §1

ERK2 = target: T10, ERK2 (Homo sapiens, UniProt P28482)
T10 construct: purchased Reaction Biology Europe GmbH (formerly ProQinase)
Description: as §1

TRKB = target: T11, TRKB (Homo sapiens, UniProt Q16620)
T11 construct: purchased Reaction Biology Europe GmbH (formerly ProQinase)
Description: as §1

CDK17/p35NCK = target: T12, CDK17/p35NCK (Homo sapiens, UniProt Q00537)
T12 construct: purchased Reaction Biology Europe GmbH (formerly ProQinase)
Description: as §1

PKCν = target: T13, PKCν (Homo sapiens, UniProt O94806)
T13 construct: purchased Reaction Biology Europe GmbH (formerly ProQinase)
T13 sequence (O94806 1-890): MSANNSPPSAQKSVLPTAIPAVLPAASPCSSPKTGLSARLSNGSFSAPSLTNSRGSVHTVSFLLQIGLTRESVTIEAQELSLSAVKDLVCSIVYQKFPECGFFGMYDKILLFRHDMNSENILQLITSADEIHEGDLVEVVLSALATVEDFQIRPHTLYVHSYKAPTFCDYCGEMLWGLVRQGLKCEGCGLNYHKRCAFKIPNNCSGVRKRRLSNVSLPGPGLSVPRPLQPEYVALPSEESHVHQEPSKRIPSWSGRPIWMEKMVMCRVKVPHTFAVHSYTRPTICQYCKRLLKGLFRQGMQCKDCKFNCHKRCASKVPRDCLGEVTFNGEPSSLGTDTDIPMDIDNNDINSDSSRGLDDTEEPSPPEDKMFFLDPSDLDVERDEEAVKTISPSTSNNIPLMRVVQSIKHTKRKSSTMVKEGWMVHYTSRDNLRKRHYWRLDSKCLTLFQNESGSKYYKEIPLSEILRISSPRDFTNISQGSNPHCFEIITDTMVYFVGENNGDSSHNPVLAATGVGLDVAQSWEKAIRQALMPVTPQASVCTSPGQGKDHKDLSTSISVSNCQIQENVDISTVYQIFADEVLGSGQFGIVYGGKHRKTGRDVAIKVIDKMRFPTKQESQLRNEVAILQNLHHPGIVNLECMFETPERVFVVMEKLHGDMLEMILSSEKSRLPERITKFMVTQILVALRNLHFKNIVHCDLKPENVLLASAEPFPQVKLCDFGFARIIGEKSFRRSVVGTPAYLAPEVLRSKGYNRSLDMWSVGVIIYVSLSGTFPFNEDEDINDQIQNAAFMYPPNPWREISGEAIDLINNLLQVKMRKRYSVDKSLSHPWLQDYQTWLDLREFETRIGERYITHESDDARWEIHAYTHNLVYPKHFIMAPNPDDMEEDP
Description: as §1

MAP4K4 = target: T14, MAP4K4 (Homo sapiens, UniProt O95819)
T14 construct: purchased Reaction Biology Europe GmbH (formerly ProQinase)
Description: as §1

T1 sequence (Q13705 19-512): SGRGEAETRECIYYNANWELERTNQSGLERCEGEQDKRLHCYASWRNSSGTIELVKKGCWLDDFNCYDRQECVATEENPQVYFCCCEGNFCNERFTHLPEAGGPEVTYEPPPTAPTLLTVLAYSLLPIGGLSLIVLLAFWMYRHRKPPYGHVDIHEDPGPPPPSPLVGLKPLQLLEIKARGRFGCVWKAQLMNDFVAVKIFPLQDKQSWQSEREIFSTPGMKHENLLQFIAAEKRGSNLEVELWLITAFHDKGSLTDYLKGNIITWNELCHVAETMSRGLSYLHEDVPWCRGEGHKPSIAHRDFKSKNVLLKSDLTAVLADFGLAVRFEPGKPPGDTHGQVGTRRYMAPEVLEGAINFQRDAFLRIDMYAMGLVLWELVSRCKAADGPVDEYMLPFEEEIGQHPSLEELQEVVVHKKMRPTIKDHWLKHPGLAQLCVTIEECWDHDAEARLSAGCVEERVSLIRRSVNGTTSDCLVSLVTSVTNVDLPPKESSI
T10 sequence (P28482 whole entry): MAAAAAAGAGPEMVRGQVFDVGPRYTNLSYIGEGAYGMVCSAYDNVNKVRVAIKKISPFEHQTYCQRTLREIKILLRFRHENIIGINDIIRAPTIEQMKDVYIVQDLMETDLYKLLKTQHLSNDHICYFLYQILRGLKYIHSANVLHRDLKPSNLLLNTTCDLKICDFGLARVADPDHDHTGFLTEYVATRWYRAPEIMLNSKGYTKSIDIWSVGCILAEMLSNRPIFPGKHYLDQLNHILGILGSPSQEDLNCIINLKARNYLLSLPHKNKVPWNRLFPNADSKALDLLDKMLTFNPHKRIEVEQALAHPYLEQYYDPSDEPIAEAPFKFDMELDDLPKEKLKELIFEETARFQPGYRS
T5 sequence (Q96GD4 whole entry): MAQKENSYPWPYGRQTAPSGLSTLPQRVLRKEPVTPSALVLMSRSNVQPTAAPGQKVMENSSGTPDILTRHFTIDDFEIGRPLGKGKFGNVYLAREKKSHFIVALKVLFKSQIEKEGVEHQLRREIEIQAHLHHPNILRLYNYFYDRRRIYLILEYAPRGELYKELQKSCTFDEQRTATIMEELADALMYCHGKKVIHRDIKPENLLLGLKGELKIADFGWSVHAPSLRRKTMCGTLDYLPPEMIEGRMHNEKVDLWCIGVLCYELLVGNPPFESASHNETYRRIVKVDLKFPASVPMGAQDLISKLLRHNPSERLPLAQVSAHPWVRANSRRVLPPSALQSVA
T6 sequence (O00506 whole entry): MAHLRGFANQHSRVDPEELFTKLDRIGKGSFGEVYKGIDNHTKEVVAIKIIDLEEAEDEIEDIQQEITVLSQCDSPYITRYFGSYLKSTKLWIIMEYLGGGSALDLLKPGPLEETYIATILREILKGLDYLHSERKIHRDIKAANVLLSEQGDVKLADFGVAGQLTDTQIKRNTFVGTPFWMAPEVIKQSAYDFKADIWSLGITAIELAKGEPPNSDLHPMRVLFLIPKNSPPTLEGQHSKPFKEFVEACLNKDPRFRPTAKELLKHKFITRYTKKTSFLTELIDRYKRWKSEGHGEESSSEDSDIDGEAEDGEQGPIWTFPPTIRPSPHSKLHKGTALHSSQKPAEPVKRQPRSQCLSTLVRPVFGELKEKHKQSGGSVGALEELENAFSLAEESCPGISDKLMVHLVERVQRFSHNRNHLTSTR
T14 sequence (O95819 whole entry): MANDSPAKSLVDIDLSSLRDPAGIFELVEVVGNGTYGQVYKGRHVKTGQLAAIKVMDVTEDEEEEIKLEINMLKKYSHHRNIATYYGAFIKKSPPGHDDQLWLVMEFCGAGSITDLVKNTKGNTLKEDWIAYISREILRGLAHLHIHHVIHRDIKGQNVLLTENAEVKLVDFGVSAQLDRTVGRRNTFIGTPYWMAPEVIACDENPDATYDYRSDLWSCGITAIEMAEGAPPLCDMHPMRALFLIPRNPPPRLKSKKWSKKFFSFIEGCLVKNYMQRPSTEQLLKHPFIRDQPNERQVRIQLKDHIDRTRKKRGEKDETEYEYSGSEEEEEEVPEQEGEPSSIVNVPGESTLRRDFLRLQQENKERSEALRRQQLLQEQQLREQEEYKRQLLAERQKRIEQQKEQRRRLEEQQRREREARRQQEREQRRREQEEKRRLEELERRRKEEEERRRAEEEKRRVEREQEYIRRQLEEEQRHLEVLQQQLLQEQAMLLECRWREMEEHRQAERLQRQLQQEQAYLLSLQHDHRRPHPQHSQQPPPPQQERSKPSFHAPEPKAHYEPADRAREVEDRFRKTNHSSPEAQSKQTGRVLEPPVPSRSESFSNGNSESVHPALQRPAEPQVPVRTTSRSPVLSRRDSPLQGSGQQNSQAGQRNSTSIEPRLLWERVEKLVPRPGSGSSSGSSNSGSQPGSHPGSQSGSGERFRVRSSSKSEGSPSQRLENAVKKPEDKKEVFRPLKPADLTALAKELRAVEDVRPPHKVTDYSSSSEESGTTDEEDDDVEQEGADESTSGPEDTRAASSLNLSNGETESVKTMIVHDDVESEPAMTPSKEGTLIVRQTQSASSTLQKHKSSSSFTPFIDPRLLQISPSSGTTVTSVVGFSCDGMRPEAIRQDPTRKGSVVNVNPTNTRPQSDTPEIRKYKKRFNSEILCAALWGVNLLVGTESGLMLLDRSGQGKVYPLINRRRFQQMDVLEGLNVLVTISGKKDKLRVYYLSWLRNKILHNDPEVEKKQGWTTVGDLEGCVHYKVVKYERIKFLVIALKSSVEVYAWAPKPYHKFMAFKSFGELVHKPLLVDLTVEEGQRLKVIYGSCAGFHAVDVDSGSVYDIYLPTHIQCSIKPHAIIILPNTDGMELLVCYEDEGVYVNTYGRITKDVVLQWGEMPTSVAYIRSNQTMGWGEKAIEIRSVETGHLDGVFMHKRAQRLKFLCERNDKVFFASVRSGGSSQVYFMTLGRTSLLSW
T2 sequence (P05771 1-673 isoform P05771-2): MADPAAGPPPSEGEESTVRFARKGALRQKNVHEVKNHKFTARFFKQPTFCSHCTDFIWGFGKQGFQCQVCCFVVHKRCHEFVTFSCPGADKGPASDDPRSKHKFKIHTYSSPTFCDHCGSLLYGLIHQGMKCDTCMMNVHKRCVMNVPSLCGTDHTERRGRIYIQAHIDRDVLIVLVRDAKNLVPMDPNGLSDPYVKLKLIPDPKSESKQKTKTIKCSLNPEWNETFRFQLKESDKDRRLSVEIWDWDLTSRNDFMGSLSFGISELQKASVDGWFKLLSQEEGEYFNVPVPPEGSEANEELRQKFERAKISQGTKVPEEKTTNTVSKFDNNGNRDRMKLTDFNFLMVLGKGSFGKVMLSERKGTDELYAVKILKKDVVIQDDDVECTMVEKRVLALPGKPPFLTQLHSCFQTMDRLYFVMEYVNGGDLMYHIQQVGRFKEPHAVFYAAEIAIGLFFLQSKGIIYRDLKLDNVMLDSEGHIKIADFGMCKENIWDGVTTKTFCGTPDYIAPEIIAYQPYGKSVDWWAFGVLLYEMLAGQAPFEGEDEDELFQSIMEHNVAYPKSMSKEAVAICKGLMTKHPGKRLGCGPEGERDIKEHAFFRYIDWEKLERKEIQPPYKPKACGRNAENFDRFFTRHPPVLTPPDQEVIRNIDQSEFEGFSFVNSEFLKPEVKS
T7 sequence (Q5TCY1 whole entry): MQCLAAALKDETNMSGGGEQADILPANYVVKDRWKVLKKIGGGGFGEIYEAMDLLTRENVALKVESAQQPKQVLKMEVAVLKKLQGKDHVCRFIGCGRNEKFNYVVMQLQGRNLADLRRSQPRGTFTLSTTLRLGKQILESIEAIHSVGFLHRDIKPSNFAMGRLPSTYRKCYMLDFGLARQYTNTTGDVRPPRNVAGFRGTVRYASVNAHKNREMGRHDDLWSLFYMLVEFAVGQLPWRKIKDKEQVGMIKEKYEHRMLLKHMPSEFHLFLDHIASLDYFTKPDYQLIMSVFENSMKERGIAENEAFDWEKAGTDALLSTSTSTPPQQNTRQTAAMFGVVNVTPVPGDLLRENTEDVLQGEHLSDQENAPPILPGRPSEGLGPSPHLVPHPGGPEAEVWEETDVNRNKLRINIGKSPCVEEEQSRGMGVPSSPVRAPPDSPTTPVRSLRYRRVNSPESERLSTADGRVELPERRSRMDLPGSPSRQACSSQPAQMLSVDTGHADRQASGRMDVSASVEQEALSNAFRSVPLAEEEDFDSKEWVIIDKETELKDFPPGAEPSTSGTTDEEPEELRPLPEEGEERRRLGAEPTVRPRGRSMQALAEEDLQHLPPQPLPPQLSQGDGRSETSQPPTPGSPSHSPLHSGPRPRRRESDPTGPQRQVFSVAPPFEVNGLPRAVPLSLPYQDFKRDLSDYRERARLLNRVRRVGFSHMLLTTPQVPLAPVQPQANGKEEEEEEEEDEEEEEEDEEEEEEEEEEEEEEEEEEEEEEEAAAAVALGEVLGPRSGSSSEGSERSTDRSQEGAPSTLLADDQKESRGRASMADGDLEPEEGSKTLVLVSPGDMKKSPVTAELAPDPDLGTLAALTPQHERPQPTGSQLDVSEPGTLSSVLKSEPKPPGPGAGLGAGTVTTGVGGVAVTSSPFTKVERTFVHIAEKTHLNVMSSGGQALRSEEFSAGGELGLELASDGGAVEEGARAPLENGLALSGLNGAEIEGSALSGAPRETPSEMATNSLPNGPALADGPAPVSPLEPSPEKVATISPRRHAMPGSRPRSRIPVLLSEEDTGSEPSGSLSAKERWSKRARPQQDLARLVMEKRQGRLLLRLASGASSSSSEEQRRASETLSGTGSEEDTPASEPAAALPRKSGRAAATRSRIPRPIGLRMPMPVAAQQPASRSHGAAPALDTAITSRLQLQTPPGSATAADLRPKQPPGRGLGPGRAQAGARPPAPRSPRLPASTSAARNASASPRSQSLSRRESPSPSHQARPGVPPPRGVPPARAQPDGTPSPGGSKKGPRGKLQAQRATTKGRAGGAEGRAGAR

Compound | residual kinase activity (ACVR2B; 0.3 µM) | residual kinase activity (PKCβ2; 0.3 µM) | residual kinase activity (DAPK1; 0.3 µM) | residual kinase activity (CDK19/CycC; 0.3 µM) | residual kinase activity (AuroraB; 0.3 µM) | residual kinase activity (STK25; 0.3 µM) | residual kinase activity (TTBK1; 0.3 µM) | residual kinase activity (BLK; 0.3 µM) | residual kinase activity (NLK; 0.3 µM) | residual kinase activity (ERK2; 0.3 µM) | residual kinase activity (TRKB; 0.3 µM) | residual kinase activity (CDK17/p35NCK; 0.3 µM) | residual kinase activity (PKCν; 0.3 µM) | residual kinase activity (MAP4K4; 0.3 µM) | further results
COc1ccnc2[nH]cc(-c3cc(N)nc(N)c3)c12 [meriolin 16] | 74 % of control | 71 % of control | 72 % of control | 2 % of control | 61 % of control | 81 % of control | 108 % of control | 95 % of control | 81 % of control | 87 % of control | 29 % of control | 24 % of control | 32 % of control | 29 % of control | residual kinase activity (ACVR2B; 0.03 µM): 81 % of control; residual kinase activity (PKCβ2; 0.03 µM): 106 % of control; residual kinase activity (DAPK1; 0.03 µM): 112 % of control; residual kinase activity (CDK19/CycC; 0.03 µM): 6 % of control; residual kinase activity (AuroraB; 0.03 µM): 85 % of control; residual kinase activity (STK25; 0.03 µM): 99 % of control; residual kinase activity (TTBK1; 0.03 µM): 116 % of control; residual kinase activity (BLK; 0.03 µM): 126 % of control; residual kinase activity (NLK; 0.03 µM): 96 % of control; residual kinase activity (ERK2; 0.03 µM): 103 % of control; residual kinase activity (TRKB; 0.03 µM): 68 % of control; residual kinase activity (CDK17/p35NCK; 0.03 µM): 46 % of control; residual kinase activity (PKCν; 0.03 µM): 89 % of control; residual kinase activity (MAP4K4; 0.03 µM): 76 % of control
c1ccc(CNc2cc(-c3c[nH]c4ncccc34)ccn2)cc1 [meriolin 36] | 22 % of control | 51 % of control | 119 % of control | 3 % of control | 67 % of control | 33 % of control | 101 % of control | 88 % of control | 78 % of control | 79 % of control | 10 % of control | 20 % of control | 62 % of control | 6 % of control | residual kinase activity (ACVR2B; 3 µM): 5 % of control; residual kinase activity (PKCβ2; 3 µM): 11 % of control; residual kinase activity (DAPK1; 3 µM): 64 % of control; residual kinase activity (CDK19/CycC; 3 µM): 0 % of control; residual kinase activity (AuroraB; 3 µM): 26 % of control; residual kinase activity (STK25; 3 µM): 6 % of control; residual kinase activity (TTBK1; 3 µM): 77 % of control; residual kinase activity (BLK; 3 µM): 13 % of control; residual kinase activity (NLK; 3 µM): 29 % of control; residual kinase activity (ERK2; 3 µM): 30 % of control; residual kinase activity (TRKB; 3 µM): 2 % of control; residual kinase activity (CDK17/p35NCK; 3 µM): 10 % of control; residual kinase activity (PKCν; 3 µM): 17 % of control; residual kinase activity (MAP4K4; 3 µM): 2 % of control
